# Results: US20100119479A1, “THERAPEUTIC ANTIVIRAL PEPTIDES” (INTERMUNE, INC., priority 2008, published 2010)
# Legend:
# [1] = biological target: T1, full-length NS3/NS4A-2 (HCV NS3 protease) (Hepatitis C virus genotype 1b, UniProt Q9WMX2); experiment: NS3 Inhibition Assay (NS3-NS4 protease assay, RETS1 substrate); type: biochemical; conditions: NS3/NS4A-2 protease
# T1 construct: Recombinant E. coli or Baculovirus full-length NS3; host or cells: E. coli or baculovirus (BV) expression
# Experimental: NS3 Complex Formation with NS4A-2.
# Recombinant E. coli or Baculovirus full-length NS3 was diluted to 3.33 μM with assay buffer and transferred material to an eppendorf tube and placed in a water bath in a 4° C. refrigerator. The appropriate amount of NS4A-2 diluted to […] in assay buffer was added to equal the volume of NS3 above (conversion factor—3.8 mg/272 μL assay buffer). The material was transferred to an eppendorf tube and placed in water bath in a 4° C. refrigerator.
# After equilibration to 4° C., equal volumes of NS3 and NS4A-2 solutions were combined in an eppendorf tube, mix gently with a manual pipettor, and incubate mixture for 15 minutes in the 4° C. water bath. Final concentrations in the mixture are 1.67 μM NS3, 4.15 mM NS4A-2 (2485-fold molar excess NS4A-2).
# After 15 minutes at 4° C., the NS3/NS4A-2 eppendorf tube was removed and place it in a room temperature water bath for 10 minutes. NS3/NS4A-2 was aliquoted at appropriate volumes and store at −80° C. (E. coli NS3 run at 2 nM in assay, aliquot at 25 μL. BV NS3 run at 3 nM in assay, aliquot at 30 μL).
# Step a. Sample compounds were dissolved to 10 mM in DMSO then diluted to 2.5 mM (1:4) in DMSO. Typically, compounds were added to an assay plate at 2.5 mM concentration, yielding upon dilution a starting concentration of 50 microM in the assay inhibition curve. Compounds were serial diluted in assay buffer to provide test solutions at lower concentrations.
# Step b. The E. coli. NS3/NS4A-2 was diluted to 4 nM NS3 (1:417.5 of 1.67 μM stock−18 μL1.67 μM stock+7497 μL assay buffer). The BV NS3/NS4A-2 was diluted to 6 nM NS3 (1:278.3 of 1.67 μM stock−24 μL1.67 μM stock+6655 μL assay buffer).
# Step c. Using the manual multichannel pipettor, and being careful not to introduce bubbles into the plate, 50 μL assay buffer were added to wells A01-H01 of a black Costar 96-well polypropylene storage plate.
# Step d. Using the manual multichannel pipettor, and being careful not to introduce bubbles into the plate, 50 μL of diluted NS3/NS4A-2 from Step b were added to wells A02-H12 of the plate in Step c.
# Step e. Using the manual multichannel pipettor, and being careful not to introduce bubbles into the plate, 25 μL of the wells in drug dilution plate in Step a were transferred to corresponding wells in assay plate in Step d. The tips on the multichannel pipettor were changed for each row of compounds transferred.
# Step f Using the manual multichannel pipettor, and being careful not to introduce bubbles into the plate, the contentes of the wells from the assay plate in Step e were mixed by aspirating and dispensing 35 μL of the 75 μL in each well five times. The tips on multichannel pipettor were changed for each row of wells mixed.
# Step g. The plate was covered with a polystyrene plate lid, and the plate from Step f containing NS3 protease and sample compounds was pre-incubated 10 minutes at room temperature.
# While plate from Step g is pre-incubating, the RETS1 substrate was diluted in a 15 mL polypropylene centrifuge tube. The RETS1 substrate was diluted to 8 μM (1:80.75 of 646 μM stock—65 μL 646 μM stock+5184 μL assay buffer).
# After the plate in Step g was done pre-incubating, and using the manual multichannel, 25 μL of substrate were added to all wells on the plate. The contents of the wells of the plate were quickly mixed, as in Step f, mixing 65 μL of the 100 μL in the wells.
# The plate was read in kinetic mode on the Molecular Devices SpectraMax Gemini XS plate reader. Reader settings: Read time: 30 minutes, Interval: 36 seconds, Reads: 51, Excitation λ: 335 nm, Emission λ: 495 nm, cutoff: 475 nm, Automix: off, Calibrate: once, PMT: high, Reads/well: 6, Vmax pts: 21 or 28/51 depending on length of linearity of reaction
# IC50s are determined using a four parameter curve fit equation, and converted to Ki's using the following Km's: […]
# Full-length E. coli NS3−2.03 μM
# Full-length BV NS3−1.74 μM
# where Ki=IC50/(1+[S]/Km))
# [2] = tested on: HCV sub-genomic replicon, GS4.3 (HuH-7 hepatoma cells); experiment: Quantitation by ELISA of NPTII in the HCV sub-genomic replicon, GS4.3; type: cell-based; conditions: Hepatitis C virus, GS4.3 replicon cells, 72 h incubation
# Text: Quantitation by ELISA of the Selectable Marker Protein, Neomycin Phosphotransferase II (NPTII) in the HCV Sub-Genomic Replicon, GS4.3
# The HCV sub-genomic replicon (1377/NS3-3′, accession No. AJ242652), stably maintained in HuH-7 hepatoma cells, was created by Lohmann et al. Science 285: 110-113 (1999). The replicon-containing cell culture, designated GS4.3, was obtained from Dr. Christoph Seeger of the Institute for Cancer Research, Fox Chase Cancer Center, Philadelphia, Pa.
# GS4.3 cells were maintained at 37° C., 5% CO2, in DMEM (Gibco 11965-092) supplemented with L-glutamine 200 mM (100×) (Gibco25030-081), non-essential amino acids (NEAA)(Biowhittaker 13-114E), heat-inactivated (HI) Fetal Bovine Serum(FBS)(Hyclone SH3007.03) and 750 μg/mL geneticin (G418)(Gibco 10131-035). Cells were sub-divided 1:3 or 4 every 2-3 days.
# 24 h prior to the assay, GS4.3 cells were collected, counted, and plated in 96-well plates (Costar 3585) at 7500 cells/well in […] standard maintenance medium (above) and incubated in the conditions above. To initiate the assay, culture medium was removed, cells were washed once with PBS (Gibco 10010-023) and 90 μl Assay Medium (DMEM, L-glutamine, NEAA, 10% HI FBS, no G418) was added. Inhibitors were made as a 10× stock in Assay Medium, (3-fold dilutions from 10 μM to […] final concentration, final DMSO concentration 1%), […] were added to duplicate wells, plates were rocked to mix, and incubated as above for 72 h.
# An NPTII Elisa kit was obtained from AGDIA, Inc. (Compound direct ELISA test system for Neomycin Phosphotransferase II, PSP 73000/4800). Manufacturer's instructions were followed, with some modifications. 10×PEB-1 lysis buffer was made up to include 500 μM PMSF (Sigma P7626, 50 mM stock in isopropanol). After 72 h incubation, cells were washed once with PBS and […] PEB-1 with PMSF was added per well. Plates were agitated vigorously for 15 minutes, room temperature, then frozen at −70° C. Plates were thawed, lysates were mixed thoroughly, and 100 μl were applied to an NPTII Elisa plate. A standard curve was made. Lysate from DMSO-treated control cells was pooled, serially diluted with PEB-1 with PMSF, and applied to duplicate wells of the ELISA plate, in a range of initial lysate amount of 150 μL-2.5 μL. In addition, 100 μL buffer alone was applied in duplicate as a blank. Plates were sealed and gently agitated at room temperature for 2 h. Following capture incubation, the plates were washed 5×300 μL with PBS-T (0.5% Tween-20, PBS-T was supplied in the ELISA kit). For detection, a 1× dilution of enzyme conjugate diluent MRS-2 (5×) was made in PBS-T, into which 1:100 dilutions of enzyme conjugates A and B were added, as per instructions. Plates were resealed, and incubated with agitation, covered, room temperature, for 2 h. The washing was then repeated and 100 μL, of room temperature TMB substrate was added. After approximately 30 minutes incubation (room temperature, agitation, covered), the reaction was stopped with 50 μL, 3M sulfuric acid. Plates were read at 450 nm on a Molecular Devices Versamax plate reader.
# Inhibitor effect was expressed as a percentage of DMSO-treated control signal, and inhibition curves were calculated using a 4-parameter equation: y=A+((B−A)/(1+((C/x)̂D))), where C is half-maximal activity or EC50.
# T1 sequence (Q9WMX2 1027-1657): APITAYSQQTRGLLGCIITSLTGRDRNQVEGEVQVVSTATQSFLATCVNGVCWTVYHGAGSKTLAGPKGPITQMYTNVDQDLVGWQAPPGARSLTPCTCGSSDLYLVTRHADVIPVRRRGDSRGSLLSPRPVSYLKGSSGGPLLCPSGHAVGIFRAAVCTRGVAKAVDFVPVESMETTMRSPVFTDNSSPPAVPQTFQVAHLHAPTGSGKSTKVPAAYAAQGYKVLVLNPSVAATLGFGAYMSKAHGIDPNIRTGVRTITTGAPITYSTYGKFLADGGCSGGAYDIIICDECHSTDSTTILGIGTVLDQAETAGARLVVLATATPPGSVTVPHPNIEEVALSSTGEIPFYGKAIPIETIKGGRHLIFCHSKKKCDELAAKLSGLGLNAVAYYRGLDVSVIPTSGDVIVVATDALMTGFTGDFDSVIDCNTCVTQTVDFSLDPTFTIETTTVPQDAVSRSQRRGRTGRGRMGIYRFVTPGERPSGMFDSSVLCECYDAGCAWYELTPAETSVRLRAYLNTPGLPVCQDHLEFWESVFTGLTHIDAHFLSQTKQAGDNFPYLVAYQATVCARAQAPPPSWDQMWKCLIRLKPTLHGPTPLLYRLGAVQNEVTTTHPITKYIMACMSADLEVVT
# T1 sequence (Q9WMX2 1658-1711): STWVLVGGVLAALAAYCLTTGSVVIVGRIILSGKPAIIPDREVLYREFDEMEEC
SMILES,IC50 [1],EC50 [2]
CC[C@@H]1C[C@]1(NC(=O)[C@@H]1C[C@@H](OC(=O)N2Cc3cccc(F)c3C2)CN1C(=O)[C@@H](Nc1cccc(COCC2(C)COC2)c1)C(C)(C)C)C(=O)NS(=O)(=O)C1CC1 [Compound 14],< 100 nM,100 to 1000 nM
CC[C@@H]1C[C@]1(NC(=O)[C@@H]1C[C@@H](OC(=O)N2Cc3cccc(F)c3C2)CN1C(=O)[C@@H](Nc1ccc(F)c(C#N)c1)C(C)(C)C)C(=O)NS(=O)(=O)C1CC1 [Compound 15],< 100 nM,100 to 1000 nM
CC[C@@H]1C[C@]1(NC(=O)[C@@H]1C[C@@H](OC(=O)N2Cc3cccc(F)c3C2)CN1C(=O)[C@@H](Nc1ccc(-n2cccn2)cc1)C(C)(C)C)C(=O)NS(=O)(=O)C1CC1 [Compound 16],< 100 nM,100 to 1000 nM
CC[C@@H]1C[C@]1(NC(=O)[C@@H]1C[C@@H](OC(=O)N2Cc3cccc(F)c3C2)CN1C(=O)[C@@H](Nc1ccc(S(=O)(=O)N2CCNCC2)cc1)C(C)(C)C)C(=O)NS(=O)(=O)C1CC1 [Compound 17],< 100 nM,> 1000 nM
CC[C@@H]1C[C@]1(NC(=O)[C@@H]1C[C@@H](OC(=O)N2Cc3ccc(NC(=O)COCCOCCOC)cc3C2)CN1C(=O)[C@@H](Nc1cc(F)cc(C(F)(F)F)c1)C(C)(C)C)C(=O)NS(=O)(=O)C1CC1 [Compound 18],100 to 1000 nM,100 to 1000 nM
CC[C@@H]1C[C@]1(NC(=O)[C@@H]1C[C@@H](OC(=O)N2Cc3ccc(NC(=O)COC)cc3C2)CN1C(=O)[C@@H](Nc1cc(F)cc(C(F)(F)F)c1)C(C)(C)C)C(=O)NS(=O)(=O)C1CC1 [Compound 19],< 100 nM,< 100 nM
CC[C@@H]1C[C@]1(NC(=O)[C@@H]1C[C@@H](OC(=O)N2Cc3ccc(NC(=O)CN4CCOCC4)cc3C2)CN1C(=O)[C@@H](Nc1cc(F)cc(C(F)(F)F)c1)C(C)(C)C)C(=O)NS(=O)(=O)C1CC1 [Compound 20],< 100 nM,< 100 nM
C=C[C@@H]1C[C@]1(NC(=O)[C@H]1Cc2cc(Oc3cccc(Cl)c3)ccc2CN1C(=O)[C@@H](Nc1cccc(C(F)(F)F)c1)C(C)(C)C)C(=O)NS(=O)(=O)C1(C)CC1 [Compound 22],< 100 nM,> 1000 nM
C=C[C@@H]1C[C@]1(NC(=O)[C@@H]1Cc2cc(Oc3cccc(Cl)c3)ccc2CN1C(=O)[C@@H](Nc1cccc(C(F)(F)F)c1)C(C)(C)C)C(=O)NS(=O)(=O)C1CC1 [Compound 23],< 100 nM,> 1000 nM
C=C[C@@H]1C[C@]1(NC(=O)[C@H]1Cc2cc(Oc3cccc(Cl)c3)ccc2CN1C(=O)[C@@H](Nc1cccc(C(F)(F)F)c1)C(C)(C)C)C(=O)NS(=O)(=O)C1CC1 [Compound 24],< 100 nM,> 1000 nM
CC[C@@H]1C[C@]1(NC(=O)[C@@H]1C[C@@H](Oc2cc(-c3ccccc3)nc3cc(OC)ccc23)CN1C(=O)[C@@H](Nc1cccc(C(F)(F)F)c1)C(C)(C)C)C(=O)NS(=O)(=O)C1(C)CC1 [Compound 230],< 100 nM,< 100 nM
CC[C@@H]1C[C@]1(NC(=O)[C@@H]1C[C@@H](Oc2nc3ccccc3s2)CN1C(=O)[C@@H](Nc1cccc(C(F)(F)F)c1)C(C)(C)C)C(=O)NS(=O)(=O)C1(C)CC1 [Compound 231],< 100 nM,< 100 nM
CC[C@@H]1C[C@]1(NC(=O)[C@@H]1C[C@@H](Oc2nc3ccccc3n2CC)CN1C(=O)[C@@H](Nc1cccc(C(F)(F)F)c1)C(C)(C)C)C(=O)NS(=O)(=O)C1(C)CC1 [Compound 232],< 100 nM,< 100 nM
C=C[C@@H]1C[C@]1(NC(=O)[C@@H]1C[C@@H](Oc2cc(-c3ccccc3)nc3cc(OC)ccc23)CN1C(=O)[C@@H](Nc1cc(F)cc(C(F)(F)F)c1)C(C)(C)C)C(=O)NS(=O)(=O)C1(C)CC1 [Compound 281],< 100 nM,< 100 nM
CC[C@@H]1C[C@]1(NC(=O)[C@@H]1C[C@@H](OC(=O)N2Cc3cccc(Cl)c3C2)CN1C(=O)[C@@H](Nc1cccc(C(F)(F)F)c1)C(C)(C)C)C(=O)NS(=O)(=O)C1(C)CC1 [Compound 282],< 100 nM,< 100 nM
CC[C@@H]1C[C@]1(NC(=O)[C@@H]1C[C@@H](OC(=O)N2Cc3cccc(Cl)c3C2)CN1C(=O)[C@@H](Nc1cc(F)cc(C(F)(F)F)c1)C(C)(C)C)C(=O)NS(=O)(=O)C1(C)CC1 [Compound 283],< 100 nM,< 100 nM
CC[C@@H]1C[C@]1(NC(=O)[C@@H]1C[C@@H](OC(=O)N2Cc3cccc(Cl)c3C2)CN1C(=O)[C@@H](Nc1ccc(F)c(C(F)(F)F)c1)C(C)(C)C)C(=O)NS(=O)(=O)C1(C)CC1 [Compound 284],< 100 nM,< 100 nM
C=C[C@@H]1C[C@]1(NC(=O)[C@@H]1C[C@@H](Oc2nccc3ccccc23)CN1C(=O)[C@@H](Nc1cc(F)cc(C(F)(F)F)c1)C(C)(C)C)C(=O)NS(=O)(=O)C1(C)CC1 [Compound 287],< 100 nM,< 100 nM
